The values that follow come from ChEMBL document CHEMBL3785084, “Rational modification of the lead molecule: Enhancement in the anticancer and dihydrofolate reductase inhibitory activity” (Bioorg Med Chem Lett, 2016).

The structures appear in SMILES notation. Calls of active or inactive are those of the source. The rule behind the calls is not given here.

The subject of one assay is SN12C. As to conditions: Homo sapiens, 10^-5 M.
For another assay, the system named is OVCAR-5. To be noted: Homo sapiens, 10^-5 M.
Another assay concerns EKVX. To be noted: Homo sapiens, 10^-5 M.
In another assay the test system is IGROV-1. As to conditions: Homo sapiens, 10^-5 M.
Another assay concerns HOP-92. As to conditions: Homo sapiens, 10^-5 M.
Another assay concerns A549. To be noted: Homo sapiens, 10^-5 M.
For another assay, the system named is UACC-62. To be noted: Homo sapiens, 10^-5 M.
The subject of a further assay is HT-29. As to conditions: Homo sapiens, 10^-5 M.
The next assay deals with HCT-116. As to conditions: Homo sapiens, 10^-5 M.
Another assay concerns Hs-578T. As to conditions: Homo sapiens, 10^-5 M.
A further assay has as its system SF-268. To be noted: Homo sapiens, 10^-5 M.
The subject of a further assay is T47D. To be noted: Homo sapiens, 10^-5 M.
The next assay has as its system SK-MEL-5. To be noted: Homo sapiens, 10^-5 M.
The next assay relates to ACHN. As to conditions: Homo sapiens, 10^-5 M.
The next assay deals with SNB-75. As to conditions: Homo sapiens, 10^-5 M.
A further assay relates to NCI-H23. To be noted: Homo sapiens, 10^-5 M.
A further assay has as its system Malme-3M. To be noted: Homo sapiens, 10^-5 M.
The test system of another assay is CAKI-1. As to conditions: Homo sapiens, 10^-5 M.
The next assay concerns SNB-19. To be noted: Homo sapiens, 10^-5 M.
The test system of the next assay is RPMI-8226. To be noted: Homo sapiens, 10^-5 M.
The next assay deals with NCI-H522. As to conditions: Homo sapiens, 10^-5 M.
The subject of the next assay is UACC-257. As to conditions: Homo sapiens, 10^-5 M.
The test system of a further assay is DU-145. To be noted: Homo sapiens, 10^-5 M.
In a further assay the test system is HOP-62. To be noted: Homo sapiens, 10^-5 M.
The subject of another assay is PC-3. To be noted: Homo sapiens, 10^-5 M.
For a further assay, the system named is NCI-H460. As to conditions: Homo sapiens, 10^-5 M.
A further assay deals with 786-0. As to conditions: Homo sapiens, 10^-5 M.
Another assay deals with OVCAR-8. As to conditions: Homo sapiens, 10^-5 M.
The subject of another assay is SF-539. To be noted: Homo sapiens, 10^-5 M.
A further assay deals with TK-10. As to conditions: Homo sapiens, 10^-5 M.
In a further assay the test system is OVCAR-4. As to conditions: Homo sapiens, 10'-5 M.
For a further assay, the system named is LOX IMVI. To be noted: Homo sapiens, 10^-5 M.
A further assay relates to COLO 205. As to conditions: Homo sapiens, 10^-5 M.
For the next assay, the system named is A498. To be noted: Homo sapiens, 10^-5 M.
For a further assay, the system named is MDA-MB-231. To be noted: Homo sapiens, 10^-5 M.
A further assay has as its system MCF7. As to conditions: Homo sapiens, 10^-5 M.
Another assay deals with HCC 2998. As to conditions: Homo sapiens, 10^-5 M.
Another assay concerns BT-549. As to conditions: Homo sapiens, 10^-5 M.
The test system of a further assay is MDA-MB-468. To be noted: Homo sapiens, 10^-5 M.
A further assay relates to UO-31. As to conditions: Homo sapiens, 10^-5 M.
A further assay relates to M14. As to conditions: Homo sapiens, 10^-5 M.
The test system of a further assay is OVCAR-3. As to conditions: Homo sapiens, 10^-5 M.
The test system of the next assay is CCRF-CEM. As to conditions: Homo sapiens, 10^-5 M.
In the next assay the test system is MOLT-4. To be noted: Homo sapiens, 10^-5 M.
The test system of a further assay is SR. As to conditions: Homo sapiens, 10^-5 M.
The test system of another assay is NCI-H226. To be noted: Homo sapiens, 10^-5 M.
For the next assay, the system named is SK-MEL-2. To be noted: Homo sapiens, 10^-5 M.
For another assay, the system named is KM12. To be noted: Homo sapiens, 10^-5 M.
The subject of another assay is SF-295. To be noted: Homo sapiens, 10^-5 M.
The subject of the next assay is HL-60(TB). As to conditions: Homo sapiens, 10^-5 M.
The subject of another assay is RXF 393. To be noted: Homo sapiens, 10^-5 M.
Another assay deals with SK-OV-3. As to conditions: Homo sapiens, 10^-5 M.
A further assay relates to NCI/ADR-RES. To be noted: Homo sapiens, 10^-5 M.
The subject of a further assay is U-251. To be noted: Homo sapiens, 10^-5 M.
The next assay deals with SW-620. As to conditions: Homo sapiens, 10^-5 M.
Another assay relates to SK-MEL-28. As to conditions: Homo sapiens, 10^-5 M.
A further assay has as its system K562. To be noted: Homo sapiens, 10^-5 M.
The next assay relates to HCT-15. As to conditions: Homo sapiens, 10^-5 M.
The next assay has as its system MDA-MB-435. As to conditions: Homo sapiens, 10^-5 M.
A further assay deals with T1, Dihydrofolate reductase (Homo sapiens, UniProt P00374).
T1 sequence (P00374 whole entry): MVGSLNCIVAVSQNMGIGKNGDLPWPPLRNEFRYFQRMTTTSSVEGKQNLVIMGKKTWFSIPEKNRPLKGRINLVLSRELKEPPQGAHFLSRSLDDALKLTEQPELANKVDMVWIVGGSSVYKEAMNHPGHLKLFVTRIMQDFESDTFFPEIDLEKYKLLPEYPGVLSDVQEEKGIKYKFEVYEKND
Nature of the assay: Inhibition of human DHFR assessed as conversion of dihydrofolic acid to tetrahydrfolic acid by enzyme immunoassay in presence of NADPH.

Description for 786-0: Cytotoxicity against human 786-0 cells assessed as tumor growth inhibition at 10^-5 M after 48 hrs by sulforhodamine B assay
Description for A498: Cytotoxicity against human A498 cells assessed as tumor growth inhibition at 10^-5 M after 48 hrs by sulforhodamine B assay
Description for A549: Cytotoxicity against human A549 cells assessed as tumor growth inhibition at 10^-5 M after 48 hrs by sulforhodamine B assay
Description for ACHN: Cytotoxicity against human ACHN cells assessed as tumor growth inhibition at 10^-5 M after 48 hrs by sulforhodamine B assay
Description for BT-549: Cytotoxicity against human BT549 cells assessed as tumor growth inhibition at 10^-5 M after 48 hrs by sulforhodamine B assay
Description for CAKI-1: Cytotoxicity against human Caki1 cells assessed as tumor growth inhibition at 10^-5 M after 48 hrs by sulforhodamine B assay
Description for CCRF-CEM: Cytotoxicity against human CCRF-CEM cells assessed as tumor growth inhibition at 10^-5 M after 48 hrs by sulforhodamine B assay
Description for COLO 205: Cytotoxicity against human COLO205 cells assessed as tumor growth inhibition at 10^-5 M after 48 hrs by sulforhodamine B assay
Description for DU-145: Cytotoxicity against human DU145 cells assessed as tumor growth inhibition at 10^-5 M after 48 hrs by sulforhodamine B assay
Description for EKVX: Cytotoxicity against human EKVX cells assessed as tumor growth inhibition at 10^-5 M after 48 hrs by sulforhodamine B assay
Description for HCC 2998: Cytotoxicity against human HCC2998 cells assessed as tumor growth inhibition at 10^-5 M after 48 hrs by sulforhodamine B assay
Description for HCT-116: Cytotoxicity against human HCT116 cells assessed as tumor growth inhibition at 10^-5 M after 48 hrs by sulforhodamine B assay
Description for HCT-15: Cytotoxicity against human HCT15 cells assessed as tumor growth inhibition at 10^-5 M after 48 hrs by sulforhodamine B assay
Description for HL-60(TB): Cytotoxicity against human HL-60(TB) cells assessed as tumor growth inhibition at 10^-5 M after 48 hrs by sulforhodamine B assay
Description for HOP-62: Cytotoxicity against human HOP62 cells assessed as tumor growth inhibition at 10^-5 M after 48 hrs by sulforhodamine B assay
Description for HOP-92: Cytotoxicity against human HOP92 cells assessed as tumor growth inhibition at 10^-5 M after 48 hrs by sulforhodamine B assay
Description for HT-29: Cytotoxicity against human HT-29 cells assessed as tumor growth inhibition at 10^-5 M after 48 hrs by sulforhodamine B assay
Description for Hs-578T: Cytotoxicity against human Hs 578T cells assessed as tumor growth inhibition at 10^-5 M after 48 hrs by sulforhodamine B assay
Description for IGROV-1: Cytotoxicity against human IGROV1 cells assessed as tumor growth inhibition at 10^-5 M after 48 hrs by sulforhodamine B assay
Description for K562: Cytotoxicity against human K562 cells assessed as tumor growth inhibition at 10^-5 M after 48 hrs by sulforhodamine B assay
Description for KM12: Cytotoxicity against human KM12 cells assessed as tumor growth inhibition at 10^-5 M after 48 hrs by sulforhodamine B assay
Description for LOX IMVI: Cytotoxicity against human LOXIMVI cells assessed as tumor growth inhibition at 10^-5 M after 48 hrs by sulforhodamine B assay
Description for M14: Cytotoxicity against human M14 cells assessed as tumor growth inhibition at 10^-5 M after 48 hrs by sulforhodamine B assay
Description for MCF7: Cytotoxicity against human MCF7 cells assessed as tumor growth inhibition at 10^-5 M after 48 hrs by sulforhodamine B assay
Description for MDA-MB-231: Cytotoxicity against human MDA-MB-231 cells assessed as tumor growth inhibition at 10^-5 M after 48 hrs by sulforhodamine B assay
Description for MDA-MB-435: Cytotoxicity against human MDA-MB-435 cells assessed as tumor growth inhibition at 10^-5 M after 48 hrs by sulforhodamine B assay
Description for MDA-MB-468: Cytotoxicity against human MDA-MB-468 cells assessed as tumor growth inhibition at 10^-5 M after 48 hrs by sulforhodamine B assay
Description for MOLT-4: Cytotoxicity against human MOLT4 cells assessed as tumor growth inhibition at 10^-5 M after 48 hrs by sulforhodamine B assay
Description for Malme-3M: Cytotoxicity against human MALME-3M cells assessed as tumor growth inhibition at 10^-5 M after 48 hrs by sulforhodamine B assay
Description for NCI-H226: Cytotoxicity against human NCI-H226 cells assessed as tumor growth inhibition at 10^-5 M after 48 hrs by sulforhodamine B assay
Description for NCI-H23: Cytotoxicity against human NCI-H23 cells assessed as tumor growth inhibition at 10^-5 M after 48 hrs by sulforhodamine B assay
Description for NCI-H460: Cytotoxicity against human NCI-H460 cells assessed as tumor growth inhibition at 10^-5 M after 48 hrs by sulforhodamine B assay
Description for NCI-H522: Cytotoxicity against human NCI-H522 cells assessed as tumor growth inhibition at 10^-5 M after 48 hrs by sulforhodamine B assay
Description for NCI/ADR-RES: Cytotoxicity against human NCI-ADR-RES cells assessed as tumor growth inhibition at 10^-5 M after 48 hrs by sulforhodamine B assay
Description for OVCAR-3: Cytotoxicity against human OVCAR3 cells assessed as tumor growth inhibition at 10^-5 M after 48 hrs by sulforhodamine B assay
Description for OVCAR-4: Cytotoxicity against human OVCAR4 cells assessed as tumor growth inhibition at 10^-5 M after 48 hrs by sulforhodamine B assay
Description for OVCAR-5: Cytotoxicity against human OVCAR5 cells assessed as tumor growth inhibition at 10^-5 M after 48 hrs by sulforhodamine B assay
Description for OVCAR-8: Cytotoxicity against human OVCAR8 cells assessed as tumor growth inhibition at 10^-5 M after 48 hrs by sulforhodamine B assay
Description for PC-3: Cytotoxicity against human PC3 cells assessed as tumor growth inhibition at 10^-5 M after 48 hrs by sulforhodamine B assay
Description for RPMI-8226: Cytotoxicity against human RPMI8226 cells assessed as tumor growth inhibition at 10^-5 M after 48 hrs by sulforhodamine B assay
Description for RXF 393: Cytotoxicity against human RXF393 cells assessed as tumor growth inhibition at 10^-5 M after 48 hrs by sulforhodamine B assay
Description for SF-268: Cytotoxicity against human SF268 cells assessed as tumor growth inhibition at 10^-5 M after 48 hrs by sulforhodamine B assay
Description for SF-295: Cytotoxicity against human SF295 cells assessed as tumor growth inhibition at 10^-5 M after 48 hrs by sulforhodamine B assay
Description for SF-539: Cytotoxicity against human SF539 cells assessed as tumor growth inhibition at 10^-5 M after 48 hrs by sulforhodamine B assay
Description for SK-MEL-28: Cytotoxicity against human SK-MEL-28 cells assessed as tumor growth inhibition at 10^-5 M after 48 hrs by sulforhodamine B assay
Description for SK-MEL-5: Cytotoxicity against human SK-MEL-5 cells assessed as tumor growth inhibition at 10^-5 M after 48 hrs by sulforhodamine B assay
Description for SK-OV-3: Cytotoxicity against human SKOV3 cells assessed as tumor growth inhibition at 10^-5 M after 48 hrs by sulforhodamine B assay
Description for SN12C: Cytotoxicity against human SN12C cells assessed as tumor growth inhibition at 10^-5 M after 48 hrs by sulforhodamine B assay
Description for SNB-19: Cytotoxicity against human SNB19 cells assessed as tumor growth inhibition at 10^-5 M after 48 hrs by sulforhodamine B assay
Description for SNB-75: Cytotoxicity against human SNB75 cells assessed as tumor growth inhibition at 10^-5 M after 48 hrs by sulforhodamine B assay
Description for SR: Cytotoxicity against human SR cells assessed as tumor growth inhibition at 10^-5 M after 48 hrs by sulforhodamine B assay
Description for SW-620: Cytotoxicity against human SW620 cells assessed as tumor growth inhibition at 10^-5 M after 48 hrs by sulforhodamine B assay
Description for T47D: Cytotoxicity against human T47D cells assessed as tumor growth inhibition at 10^-5 M after 48 hrs by sulforhodamine B assay
Description for TK-10: Cytotoxicity against human TK10 cells assessed as tumor growth inhibition at 10^-5 M after 48 hrs by sulforhodamine B assay
Description for U-251: Cytotoxicity against human U251 cells assessed as tumor growth inhibition at 10^-5 M after 48 hrs by sulforhodamine B assay
Description for UACC-257: Cytotoxicity against human UACC257 cells assessed as tumor growth inhibition at 10^-5 M after 48 hrs by sulforhodamine B assay
Description for UACC-62: Cytotoxicity against human UACC62 cells assessed as tumor growth inhibition at 10^-5 M after 48 hrs by sulforhodamine B assay
Description for UO-31: Cytotoxicity against human UO31 cells assessed as tumor growth inhibition at 10^-5 M after 48 hrs by sulforhodamine B assay

As for `COc1cc(Cc2cnc(N)nc2N)cc(OC)c1OC`, the TGI entry with SN12C, in the assay on OVCAR-5, with EKVX, in the assay with IGROV-1, in the assay on HOP-92 and in the assay with A549 was “inactive” each time. Besides, the TGI result in the assay with UACC-62, in the assay on HT-29, in the assay on HCT-116, in the assay on Hs-578T, in the assay with SF-268 and with T47D was “inactive” in each case. In addition, the TGI result with SK-MEL-5, in the assay on ACHN, in the assay with SNB-75, in the assay on NCI-H23, with Malme-3M and in the assay on CAKI-1 was “inactive” each time. Further, the TGI result in the assay on SNB-19, in the assay on RPMI-8226, with NCI-H522, with UACC-257, with DU-145 and in the assay with HOP-62 was “inactive” throughout. Also, the TGI entry in the assay on PC-3, in the assay on NCI-H460, in the assay on 786-0, in the assay on OVCAR-8, in the assay with SF-539 and in the assay with TK-10 was “inactive” throughout. Besides, the TGI result in the assay on OVCAR-4, in the assay on LOX IMVI, in the assay on COLO 205, with A498, in the assay on MDA-MB-231 and with MCF7 was “inactive” throughout. The TGI entry in the assay on HCC 2998, in the assay with BT-549, in the assay with MDA-MB-468, in the assay with UO-31, in the assay on M14 and in the assay on OVCAR-3 was “inactive” in each case. Also, the TGI result in the assay on CCRF-CEM, with MOLT-4, in the assay on SR, in the assay on NCI-H226, with SK-MEL-2 and with KM12 was “inactive” each time. In addition, the TGI result in the assay with SF-295, in the assay with HL-60(TB), in the assay on RXF 393, in the assay on SK-OV-3, in the assay with NCI/ADR-RES and with U-251 was “inactive” each time. Besides, the TGI result in the assay with SW-620, in the assay with SK-MEL-28, in the assay with K562, with HCT-15 and with MDA-MB-435 was “inactive” in each case.
As for `O=C1NC(=S)NC(=O)C1=Cc1cn(CC(O)Cn2cc(C=C3C(=O)NC(=S)NC3=O)c3ccccc32)c2ccccc12`, the IC50 at Dihydrofolate reductase turned out to be 7 µM.
Still for that read-out and setting: the result for `O=C1Nc2ccc([N+](=O)[O-])cc2/C1=C/c1cn(CC(O)Cn2cc(/C=C3\C(=O)Nc4ccc([N+](=O)[O-])cc43)c3ccccc32)c2ccccc12` (stereo unspecified) reads 0.7 µM.
